Experimental findings from PMC8462848, “Quinazolin-4(3H)-one based potential multiple tyrosine kinase inhibitors with excellent cytotoxicity” (Journal of Enzyme Inhibition and Medicinal Chemistry, 2021) are described below.

For data set [1], the system named is MCF7 (human breast adenocarcinoma) cells. The data set can be described thus: MTT cytotoxicity assay, MCF7. It counts as cell-based. The procedure: (§1) The cytotoxicity of the synthesised quinazolin-4(3H)-ones was evaluated by MTT assay, as previously described. Two cancer cell lines, MCF7 (human breast adenocarcinoma) and A2780 (human ovary adenocarcinoma), were used in this study, which were obtained from the ATCC (Rockville, MD, USA). […] Additionally, compounds were prepared at the same medium to obtain serial dilutions (50, 25, […] and 0.1 µM). […] The media were aspirated, and the formazan crystals were solubilised by adding 150 µL DMSO. Absorbance was read on a multi-plate reader (BioRad) at […]. […] The data were obtained from triplicates and analysed using statistical software.
(In general: Tetrazolium assays rely on reduction of a dye to a coloured formazan, in cell work by metabolically active cells.)

Data set [2] relates to A2780 (human ovary adenocarcinoma) cells. The data set is described as follows: MTT cytotoxicity assay, A2780. It counts as cell-based. The procedure:
as §1

Data set [3] deals with T1, CDK2/CyclinA2 (Homo sapiens, UniProt P24941).
T1 construct: purchased #79599
The data set is described as follows: CDK2 Assay Kit, Kinase-Glo MAX luminescence. Type of data set: biochemical. Particulars: one experimental data. The procedure: The CDK2 Assay Kit is designed to measure CDK2/CyclinA2 activity for screening and profiling applications, using Kinase-Glo® MAX as a detection reagent. The CDK2 Assay Kit comes in a convenient 96-well format, with enough purified recombinant CDK2/CyclinA2 enzyme, CDK substrate peptide, ATP and kinase assay buffer for 100 enzyme reactions. […] […] The compounds were diluted in 10% DMSO and 5 μl of the dilution was added to a 50 μl reaction so that the final concentration of DMSO was 1% in all of the reactions. All of the enzymatic reactions were conducted at 30 °C for 40 min. The 50 μl reaction mixture contained 40 mM Tris, pH 7.4, 10 mM MgCl2, 0.1 mg/mL BSA, 1 mM DTT, 10 mM ATP, Kinase substrate and the enzyme (CDK2/CyclinA2). After the enzymatic reaction, 50 μl of Kinase-Glo® MAX Luminescence kinase assay solution was added to each reaction and the plates were incubated for 5 min at room temperature. Luminescence signal was measured using a Bio Tek Synergy 2 microplate reader.
Figure S1. Calculation of the IC20 Values of Protein Kinase Enzyme CDK2 for 2f
* All the kinase IC20 (µM) were calculated according to the above equations.
(1 picture or pasted object on this page, not shown here)
On the technique in general: Kinase-Glo measures the ATP left after a reaction by luminescence.

The target in another data set is T2, HER2 (Homo sapiens, UniProt P04626).
T2 construct: purchased #40721
T2 sequence (P04626 23-1255): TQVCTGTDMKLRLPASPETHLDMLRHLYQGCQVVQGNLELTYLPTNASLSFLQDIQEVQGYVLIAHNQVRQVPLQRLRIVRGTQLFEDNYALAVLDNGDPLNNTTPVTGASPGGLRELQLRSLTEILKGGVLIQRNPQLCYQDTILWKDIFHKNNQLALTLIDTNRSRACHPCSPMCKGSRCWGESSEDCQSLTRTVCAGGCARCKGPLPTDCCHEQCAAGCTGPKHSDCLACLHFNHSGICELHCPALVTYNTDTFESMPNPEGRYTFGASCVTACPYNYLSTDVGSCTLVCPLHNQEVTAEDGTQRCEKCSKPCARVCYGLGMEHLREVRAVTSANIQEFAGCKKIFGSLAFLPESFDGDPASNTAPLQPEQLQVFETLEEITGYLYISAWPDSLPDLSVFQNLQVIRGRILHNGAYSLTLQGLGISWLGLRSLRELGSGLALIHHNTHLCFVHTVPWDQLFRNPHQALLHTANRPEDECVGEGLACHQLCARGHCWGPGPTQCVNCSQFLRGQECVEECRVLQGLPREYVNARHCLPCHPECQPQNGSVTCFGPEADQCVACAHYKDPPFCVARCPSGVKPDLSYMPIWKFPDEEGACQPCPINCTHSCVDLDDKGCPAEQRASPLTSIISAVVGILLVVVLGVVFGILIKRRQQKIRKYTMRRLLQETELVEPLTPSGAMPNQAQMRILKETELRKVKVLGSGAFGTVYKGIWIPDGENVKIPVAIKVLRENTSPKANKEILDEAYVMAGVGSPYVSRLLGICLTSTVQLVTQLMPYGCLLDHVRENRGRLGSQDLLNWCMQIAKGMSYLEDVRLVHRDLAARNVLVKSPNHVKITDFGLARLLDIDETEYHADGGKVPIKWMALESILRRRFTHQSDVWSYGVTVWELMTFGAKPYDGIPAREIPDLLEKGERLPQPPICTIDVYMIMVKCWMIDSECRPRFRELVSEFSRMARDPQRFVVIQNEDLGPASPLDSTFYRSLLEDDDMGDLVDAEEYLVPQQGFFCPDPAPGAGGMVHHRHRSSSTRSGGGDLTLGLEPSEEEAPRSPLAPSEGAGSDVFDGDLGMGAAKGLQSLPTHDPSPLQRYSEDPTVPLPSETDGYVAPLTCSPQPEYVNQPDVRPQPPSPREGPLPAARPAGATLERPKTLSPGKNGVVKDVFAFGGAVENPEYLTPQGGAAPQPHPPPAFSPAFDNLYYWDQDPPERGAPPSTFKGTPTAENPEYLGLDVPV
The data set can be described thus: HER2 kinase assay kit, Kinase-Glo MAX luminescence. Type of data set: biochemical. The settings on record: for inhibition at 0.01 µM / inhibition at 0.1 µM / inhibition at 1 µM / inhibition at 10 µM: one experimental data; for IC50: mean ± SD of triplicate. On the procedure:
(§2) The HER2/EGFR/VEGFR2 assay kit is designed to measure HER2/EGFR/VEGFR-2 inhibitory activity for screening and profiling applications, using Kinase-Glo® MAX as a detection reagent. The HER2/EGFR/VEGFR2 assay kit comes in a convenient 96-well format, with enough purified recombinant HER2/EGFR/VEGFR2 enzyme, HER2/EGFR/VEGFR2 substrate, ATP and kinase buffer 1 for 100 enzyme reactions. […] […] The quinazolin-4(3H)-ones were diluted in 10% DMSO and 5 μl of the dilution was added to a 50 μl reaction so that the final concentration of DMSO was 1% in all of the reactions. All of the enzymatic reactions were conducted at 30 °C for 40 min. The 50 μl reaction mixture contained 40 mM Tris, pH 7.4, 10 mM MgCl2, 0.1 mg/mL BSA, 1 mM DTT, 10 mM ATP, kinase substrate and the enzyme HER2 / EGFR / VEGFR2. After the enzymatic reaction, 50 μl of Kinase-Glo® MAX luminescence kinase assay solution was added to each reaction and the plates were incubated for 5 min at room temperature. Luminescence signal was measured using a Bio Tek Synergy 2 microplate reader (For detail enzyme assay protocol and the results, please see supplementary data).

The target of data set [4] is T1, CDK2/CyclinA2. The data set is described as follows: CDK2 Assay Kit, Kinase-Glo MAX luminescence. Type of data set: biochemical. The settings on record: mean ± SD of triplicate.
For the next data set, the target named is T3, EGFR (Homo sapiens, UniProt P00533).
T3 construct: purchased #40321
T3 sequence (P00533 25-1210): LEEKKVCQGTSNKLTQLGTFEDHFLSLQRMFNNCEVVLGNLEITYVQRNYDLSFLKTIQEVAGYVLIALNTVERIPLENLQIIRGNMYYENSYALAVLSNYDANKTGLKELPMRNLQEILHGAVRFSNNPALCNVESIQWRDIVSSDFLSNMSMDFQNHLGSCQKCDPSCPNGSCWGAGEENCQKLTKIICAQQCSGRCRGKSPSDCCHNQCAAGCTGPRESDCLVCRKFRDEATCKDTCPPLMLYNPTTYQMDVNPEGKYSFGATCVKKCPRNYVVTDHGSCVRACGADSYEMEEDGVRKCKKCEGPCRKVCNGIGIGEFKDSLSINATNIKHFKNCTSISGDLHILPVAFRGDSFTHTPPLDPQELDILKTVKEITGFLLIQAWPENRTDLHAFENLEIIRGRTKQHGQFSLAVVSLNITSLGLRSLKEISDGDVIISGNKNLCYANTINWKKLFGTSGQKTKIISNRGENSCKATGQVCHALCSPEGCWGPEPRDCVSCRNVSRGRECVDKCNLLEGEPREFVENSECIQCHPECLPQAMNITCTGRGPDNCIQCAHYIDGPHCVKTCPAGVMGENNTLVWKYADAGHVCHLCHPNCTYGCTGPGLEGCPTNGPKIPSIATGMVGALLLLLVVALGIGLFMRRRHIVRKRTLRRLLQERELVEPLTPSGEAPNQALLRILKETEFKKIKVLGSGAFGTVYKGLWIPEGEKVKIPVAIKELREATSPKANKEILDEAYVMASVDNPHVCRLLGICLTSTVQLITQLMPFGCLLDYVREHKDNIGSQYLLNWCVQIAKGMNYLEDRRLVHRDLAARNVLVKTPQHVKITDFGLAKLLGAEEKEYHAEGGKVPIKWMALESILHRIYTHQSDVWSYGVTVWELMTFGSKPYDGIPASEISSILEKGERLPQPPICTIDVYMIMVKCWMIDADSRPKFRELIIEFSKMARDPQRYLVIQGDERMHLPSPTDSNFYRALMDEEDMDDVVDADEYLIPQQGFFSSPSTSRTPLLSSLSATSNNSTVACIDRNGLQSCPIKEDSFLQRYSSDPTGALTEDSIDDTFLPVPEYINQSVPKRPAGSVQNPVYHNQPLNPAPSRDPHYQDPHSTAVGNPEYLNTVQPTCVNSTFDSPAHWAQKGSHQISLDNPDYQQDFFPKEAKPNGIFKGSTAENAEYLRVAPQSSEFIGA
The data set is described as follows: EGFR kinase assay kit, Kinase-Glo MAX luminescence. Type of data set: biochemical. Particulars: for inhibition at 0.01 µM / inhibition at 0.1 µM / inhibition at 1 µM / inhibition at 10 µM: one experimental data; for IC50: mean ± SD of triplicate. On the procedure:
as §2

For the next data set, the target named is T4, VEGFR2 (Homo sapiens, UniProt P35968).
T4 construct: purchased #40325
T4 sequence (P35968 20-1356): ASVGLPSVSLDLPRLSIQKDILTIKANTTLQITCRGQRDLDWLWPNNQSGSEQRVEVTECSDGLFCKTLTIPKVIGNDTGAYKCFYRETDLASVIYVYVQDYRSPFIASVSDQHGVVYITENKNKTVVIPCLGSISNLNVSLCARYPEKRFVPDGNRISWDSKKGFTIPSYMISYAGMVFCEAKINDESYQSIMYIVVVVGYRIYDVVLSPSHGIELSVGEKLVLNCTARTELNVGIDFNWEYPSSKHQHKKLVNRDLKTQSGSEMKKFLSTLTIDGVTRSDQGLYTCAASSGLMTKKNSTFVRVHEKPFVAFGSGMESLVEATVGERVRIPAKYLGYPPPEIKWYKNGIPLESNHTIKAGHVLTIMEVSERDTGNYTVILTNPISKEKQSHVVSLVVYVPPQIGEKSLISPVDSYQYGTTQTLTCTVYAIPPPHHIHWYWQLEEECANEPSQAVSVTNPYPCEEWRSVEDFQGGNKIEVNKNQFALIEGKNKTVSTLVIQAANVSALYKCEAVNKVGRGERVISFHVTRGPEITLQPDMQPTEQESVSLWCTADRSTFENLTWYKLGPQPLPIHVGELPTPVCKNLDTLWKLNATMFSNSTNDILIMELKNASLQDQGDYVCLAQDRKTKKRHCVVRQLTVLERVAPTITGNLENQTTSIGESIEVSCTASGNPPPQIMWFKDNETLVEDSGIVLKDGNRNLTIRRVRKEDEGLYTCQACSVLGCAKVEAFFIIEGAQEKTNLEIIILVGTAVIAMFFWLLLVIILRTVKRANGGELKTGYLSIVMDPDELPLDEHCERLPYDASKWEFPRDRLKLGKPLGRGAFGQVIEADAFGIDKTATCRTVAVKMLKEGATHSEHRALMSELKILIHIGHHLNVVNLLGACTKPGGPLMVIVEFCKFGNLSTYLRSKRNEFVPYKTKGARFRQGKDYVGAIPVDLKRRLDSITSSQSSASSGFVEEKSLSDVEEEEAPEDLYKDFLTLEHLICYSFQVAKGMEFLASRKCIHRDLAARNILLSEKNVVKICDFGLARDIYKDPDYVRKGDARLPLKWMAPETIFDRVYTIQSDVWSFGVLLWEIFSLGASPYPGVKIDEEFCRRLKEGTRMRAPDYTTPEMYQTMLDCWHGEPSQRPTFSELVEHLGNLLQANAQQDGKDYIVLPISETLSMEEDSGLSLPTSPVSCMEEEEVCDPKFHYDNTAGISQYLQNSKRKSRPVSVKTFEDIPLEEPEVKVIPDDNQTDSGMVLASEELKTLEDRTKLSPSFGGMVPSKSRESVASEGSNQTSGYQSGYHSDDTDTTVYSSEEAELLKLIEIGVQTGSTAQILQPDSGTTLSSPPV
The data set is described as follows: VEGFR2 kinase assay kit, Kinase-Glo MAX luminescence. It counts as biochemical. Particulars: for inhibition at 0.01 µM / inhibition at 0.1 µM / inhibition at 1 µM / inhibition at 10 µM: one experimental data, read-out: % Inhibition VEGFR-2; for IC50: mean ± SD of triplicate. On the procedure:
as §2

[5] abbreviates: Homo sapiens, MCF7, mean ± SD of triplicate.
Setting [6] is: Homo sapiens, A2780, mean ± SD of triplicate.

On to “2-((5-Chloro-6-methyl-4-oxo-3-phenyl-3,4-dihydroquinazolin-2-yl)thio)acetohydrazide [3e]”, for which the IC50 (in general, the concentration needed to halve the response being measured) in data set [1] (mean ± SD of triplicate) worked out at 740 ± 230 nM; in data set [2] (mean ± SD of triplicate) it was 920 ± 110 nM.
Turning to `CCOC(=O)CSc1nc2ccc(Cl)cc2c(=O)n1-c1ccccc1` [2a, Ethyl 2-((6-chloro-4-oxo-3-phenyl-3,4-dihydroquinazolin-2-yl)thio)acetate], the melting point (as a rule, the temperature of the solid-liquid transition) lay within 85 to 87 °C. Besides, in data set [1] (setting [5]), the midpoint of inhibition, the IC50, lay at 1500 ± 10 nM. For the same molecule, the IC50 in data set [2] (setting [6]) was found to be 2050 ± 640 nM.
For the molecule `CCOC(=O)CSc1nc2ccc(F)cc2c(=O)n1-c1ccccc1` [2b, Ethyl 2-((6-fluoro-4-oxo-3-phenyl-3,4-dihydroquinazolin-2-yl)thio)acetate], the melting point was in the range of 124 to 127 °C. Moreover, the IC50 in data set [1] (setting [5]) turned out to be 15720 ± 70 nM. Besides, it took 2980 ± 300 nM to reach half-maximal inhibition in data set [2] (setting [6]) (IC50).
The molecule `CCOC(=O)CSc1nc2c(F)cc(F)cc2c(=O)n1-c1ccccc1` [2c, Ethyl 2-((6,8-difluoro-4-oxo-3-phenyl-3,4-dihydroquinazolin-2-yl)thio)acetate] returned a melting point of 151 to 153 °C. In data set [1] (setting [5]), this molecule showed an IC50 of 730 ± 180 nM. The molecule also displayed an IC50 in data set [2] (setting [6]) of 490 ± 50 nM.
Taken in the same sequence, the figures for `CCOC(=O)CSc1nc2cc(OC)c(OC)cc2c(=O)n1-c1ccccc1` [2d, Ethyl 2-((6,7-dimethoxy-4-oxo-3-phenyl-3,4-dihydroquinazolin-2-yl)thio)acetate] were 145 to 146 °C, 1560 ± 20 nM and 1230 ± 100 nM.
For `CCOC(=O)CSc1nc2ccc(Cl)cc2c(=O)n1Cc1ccccc1` [2f, Ethyl 2-((3-benzyl-6-chloro-4-oxo-3,4-dihydroquinazolin-2-yl)thio)acetate], the melting point was 73 to 75 °C. Also, on CDK2/CyclinA2 [3], the inhibition (as a rule, the change of the read-out against control, counted positive when it falls) at 0.01 µM is 4.32%; the inhibition at 0.1 µM worked out at 31.2%; the inhibition at 1 µM worked out at 32.9%; the inhibition at 10 µM is 84%. Moreover, at HER2, the inhibition at 0.01 µM is 2.33%, the inhibition at 0.1 µM is 38.9%, the inhibition at 1 µM was found to be 74.8% and the inhibition at 10 µM worked out at 89.8%. At HER2, the IC50 turned out to be 264 ± 13 nM. It took 424 ± 12 nM to reach half-maximal inhibition against CDK2/CyclinA2 [4] (IC50). At EGFR, the inhibition at 0.01 µM was determined as 2.18%, the inhibition at 0.1 µM came to 19.1%, the inhibition at 1 µM was found to be 29.2% and the inhibition at 10 µM worked out at 83.2%. For the same molecule, the 50% inhibitory concentration (IC50) at EGFR is 584 ± 11 nM. In data set [1] (setting [5]), this molecule yielded an IC50 of 1560 ± 240 nM. At VEGFR2, the inhibition at 0.01 µM was 3.49%, the inhibition at 0.1 µM was 20.2%, the inhibition at 1 µM was found to be 40.1% and the inhibition at 10 µM came out at 38.3%. In addition, the IC50 at VEGFR2 amounted to 1920 ± 21 nM. In data set [2] (setting [6]), this molecule displayed an IC50 of 1320 ± 430 nM.
On to `NNC(=O)CSc1nc2ccc(Cl)cc2c(=O)n1-c1ccccc1` [3a, 2-((6-Chloro-4-oxo-3-phenyl-3,4-dihydroquinazolin-2-yl)thio)acetohydrazide], for which the melting point was 181 to 183 °C. The midpoint of inhibition in data set [1] (setting [5]), the IC50, lay at 200 ± 20 nM. Also, inhibition in data set [2] (setting [6]) was half-maximal at 3000 ± 1200 nM (IC50).
For `NNC(=O)CSc1nc2ccc(F)cc2c(=O)n1-c1ccccc1` [3b, 2-((6-Fluoro-4-oxo-3-phenyl-3,4-dihydroquinazolin-2-yl)thio)acetohydrazide], in that order: 192 to 194 °C, 1320 ± 120 nM and 300 ± 60 nM.
`NNC(=O)CSc1nc2c(F)cc(F)cc2c(=O)n1-c1ccccc1` [3c, 2-((6,8-Difluoro-4-oxo-3-phenyl-3,4-dihydroquinazolin-2-yl)thio)acetohydrazide]: the melting point is 201 to 203 °C. In data set [1] (setting [5]), this molecule returned an IC50 of 330 ± 30 nM. This molecule yielded a 50% inhibitory concentration (IC50) in data set [2] (setting [6]) of 1210 ± 10 nM.
Taken in the same sequence, the figures for `COc1cc2nc(SCC(=O)NN)n(-c3ccccc3)c(=O)c2cc1OC` [3d, 2-((6,7-Dimethoxy-4-oxo-3-phenyl-3,4-dihydroquinazolin-2-yl)thio)acetohydrazide] were 166 to 168 °C, 500 ± 290 nM and 770 ± 660 nM.
Consider `NNC(=O)CSc1nc2ccc(F)cc2c(=O)n1Cc1ccccc1` [3g, 2-((3-Benzyl-6-fluoro-4-oxo-3,4-dihydroquinazolin-2-yl)thio)acetohydrazide], for which, at CDK2/CyclinA2 [3], the inhibition at 0.01 µM turned out to be 14.9%, the inhibition at 0.1 µM was 47.1%, the inhibition at 1 µM was found to be 74.1% and the inhibition at 10 µM is 89%. Also, on HER2, the inhibition at 0.01 µM worked out at 23.4%, the inhibition at 0.1 µM came out at 23.4%, the inhibition at 1 µM stood at 83.8% and the inhibition at 10 µM is 94.8%. In addition, the IC50 at HER2 is 112 ± 16 nM. The same molecule came in with an IC50 against CDK2/CyclinA2 [4] of 207 ± 17 nM. Besides, on EGFR, the inhibition at 0.01 µM was determined as 11.7%, the inhibition at 0.1 µM turned out to be 40.3%, the inhibition at 1 µM worked out at 81.3% and the inhibition at 10 µM came out at 94%. In addition, the IC50 on EGFR stood at 221 ± 14 nM. On VEGFR2, the inhibition at 0.01 µM is 3.73%, the inhibition at 0.1 µM was determined as 40.9%, the inhibition at 1 µM turned out to be 71.9% and the inhibition at 10 µM was found to be 90.3%. For the same molecule, the IC50 on VEGFR2 amounted to 294 ± 11 nM.
Turning to `COc1cc2nc(SCC(=O)NN)n(Cc3ccccc3)c(=O)c2cc1OC` [3i, 2-((3-Benzyl-6,7-dimethoxy-4-oxo-3,4-dihydroquinazolin-2-yl)thio)acetohydrazide], the inhibition at 0.01 µM at CDK2/CyclinA2 [3] was 10.3%; on HER2, 17.9%; on EGFR it was 3.38%; on VEGFR2, 10.2%. Also, the inhibition at 0.1 µM on CDK2/CyclinA2 [3] was 44.3%; at HER2, 20.3%; at EGFR, 41.2%; at VEGFR2 it was 33.5%. Further, the inhibition at 1 µM was determined as 72.1% on CDK2/CyclinA2 [3], 84.3% on HER2, 77.2% at EGFR and 37.2% on VEGFR2. In addition, the inhibition at 10 µM on CDK2/CyclinA2 [3] was found to be 90.4%; at HER2, 94.8%; on EGFR it was 92.4%; on VEGFR2 it was 89.4%. Further, the IC50 on HER2 was found to be 79 ± 15 nM; on CDK2/CyclinA2 [4], 177 ± 32 nM; on EGFR it was 181 ± 11 nM; in data set [1] (setting [5]) it was 560 ± 310 nM; at VEGFR2, 257 ± 23 nM; in data set [2] (setting [6]) it was 1360 ± 70 nM.
With `CS(=O)(=O)CCNCc1ccc(-c2ccc3ncnc(Nc4ccc(OCc5cccc(F)c5)c(Cl)c4)c3c2)o1` [lapatinib, reference compound], on HER2, the inhibition at 0.01 µM came out at 23.3%, the inhibition at 0.1 µM turned out to be 23.2%, the inhibition at 1 µM amounted to 84.3% and the inhibition at 10 µM was determined as 92.2%. This molecule also registered an IC50 in data set [1] (setting [5]) of 5900 ± 740 nM. In data set [2] (setting [6]), this molecule showed an IC50 of 11100 ± 1030 nM. The molecule further came in with an IC50 in data set [2] (mean ± SD of triplicate) of 12100 ± 1030 nM.
As for “Ethyl 2-((5-chloro-6-methyl-4-oxo-3-phenyl-3,4-dihydroquinazolin-2-yl)thio)acetate [2e]”, the results for the IC50 in data set [1] (mean ± SD of triplicate) and in data set [2] (mean ± SD of triplicate) were 14900 ± 990 nM and 16400 ± 1800 nM, respectively.
